Measurements as given in patent publication US20130209625A1, “METHODS AND COMPOSITIONS FOR STIMULATING A FELIDAE T1R RECEPTOR” (MONELL CHEMICAL SENSES CENTER, priority 2010, published 2013).

Test system: Felidae T1R1/T1R3 receptor
Assay: Calcium imaging (fura-2, F340/F380) of HEK293 cells expressing T1R1/T1R3 receptor and Gα15, responses to taste stimuli
Format: cell-based, cat
From the text: Provided herein are methods for determining if two or more test compounds have an augmenting effect on the T1R1/T1R3 receptor where each test compound alone elicits a small or moderate response comprising contacting the receptor with the test compounds, and measuring the response of the receptor to the test compounds, wherein the compounds have an augmenting effect on the receptor if the response of the receptor to the compounds in a mixture in which each compound is presented at a given concentration is greater than the response to either one of the compounds alone at its given respective concentration. Responses are measured in terms of the Fluorescence Ratio F340/F380 as detailed in the Examples. Responses are gauged by comparing each response with the response to 100 μM isoproterenol, the positive control which activates the cell through Gα15. A null response is less than 10% of the control response. A small or moderate response is equal to or greater than 10% of the control response. In some preferred embodiments, the T1R1/T1R3 receptor is a Felidae T1R1/T1R3 receptor
b. Cell Transfection: HEK293 cell lines that stably express Gα15 were grown and maintained at 37° C. DMEM supplemented with 10% FBS and MEM nonessential amino acids (Invitrogen); the medium for Gα15 transfected cells contains 5 μg/ml blasticidin (Invitrogen). Cells were co-transfected with expression constructs by using Lipofectamine 2000 reagent (Invitrogen). T1R1/T1R3 transfected cells were selected using Zeocin (100 μg/ml) and hygromycin (400 μg/ml).
c. Establishing stable cell lines: Transfected cells were maintained in antibiotic selective medium until colonies appear. Single colonies were identified two weeks after transfection and were examined for RNA expression by RT-PCR and for protein expression by immunohistochemistry. Positive colonies confirmed by RT-PCR and immunohistochemistry were stocked in liquid nitrogen as stable cell lines expressing T1R1/T1R3.
a. In vitro assays: HEK293 cells' responses to taste stimuli were measured using calcium imaging techniques (Nelson et al. 2001, Li et al. 2002, Gomez et al. 2005). Transfected cells were loaded with fura-2 containing buffer for one hour. Coverslips with fura-2 loaded cells were then placed in a recording chamber and continuously superfused with Hank's salt solution (Nelson et al. 2001). Enhancement solutions were applied by switching the superfusion, which allowed a complete change of bath solutions within 5-20 seconds, based on preliminary experiments with fluorescent dye for each setup and recording chamber. Calcium imaging recordings were performed using Imagemaster-5 multi-wavelength quantitative fluorescence imaging system (Photon Technology International, Inc.). Cells were illuminated with UV light at two wavelengths (340 or 380 nm). Intracellular calcium activity was computed from the ratio of emitted light from the 340/380 nm wavelengths. Excitation light was shuttered between acquisitions, with exposure times being minimized (typically 50-100 msec). Images are normally acquired every 2-5 sec. Using these conditions, cells remain viable in the recording setup for more than 2 h without significant effects of dye bleaching or baseline shifts. The use of ratiometric imaging reduces the problems associated with fluorescence quenching or dye loss that can generate artifacts using single-wavelength dyes.
b. Amino acid stimulation of the HEK transfected cell lines: In a typical experiment to determine if there is an interaction at the receptor between two compounds, the response (peak height of intracellular calcium concentration) to each compound as well as a mixture of the two compounds is measured. If each compound alone elicits a small or moderate response, it will be necessary to compare responses to single compounds with a mixture in which each compound is presented at its initial test concentration. In this manner we can determine if the enhancement is greater than simple additivity. […]

Structure (SMILES): NCCCC[C@H](N)C(=O)O [L-lysine]
- response of HEK293 cells (calcium imaging) (FIG. 4, 5 cells, 25 mM L-lysine alone): null responses
- response of HEK293 cell (calcium imaging) (FIG. 6, 25 mM L-lysine alone): null response (A null response is less than 10% of the control response)

Structure (SMILES): N[C@@H](Cc1c[nH]cn1)C(=O)O [L-histidine]
- augmentation of response by pyrophosphate (FIG. 4, 5 cells): not augmented
- response of HEK293 cells (calcium imaging) (FIG. 4, 5 cells, 25 mM L-histidine alone): null responses
- response of HEK293 cell (calcium imaging) (FIG. 5, 25 mM L-histidine alone): null responses

Structure (SMILES): C[C@H](N)C(=O)O [L-alanine]
- response of HEK293 cell (calcium imaging) (FIG. 5, 25 mM L-alanine alone): null responses

Structure (SMILES): O=C(O)[C@@H]1CCCN1 [L-proline]
- response of HEK293 cell (calcium imaging) (FIG. 1, 25 mM L-proline alone, vs 100 μM isoproterenol positive control): null responses
- response of HEK293 cells (calcium imaging) (FIG. 2, 3 cells, 50 mM L-proline alone): null responses
- response of HEK293 cell (calcium imaging) (FIG. 3, 50 mM L-proline presented singly): null responses

Structure (SMILES): O=P([O-])([O-])OP(=O)([O-])O.[Na+].[Na+].[Na+] [sodium pyrophosphate, trisodium pyrophosphate]
- response of HEK293 cell (calcium imaging) (FIG. 3, 10 mM sodium pyrophosphate presented singly): null responses
- response of HEK293 cell (calcium imaging) (FIG. 3, 20 mM sodium pyrophosphate presented singly): null responses
- response of HEK293 cells (calcium imaging) (FIG. 4, 5 cells, 20 mM sodium pyrophosphate alone): null responses
- response of HEK293 cell (calcium imaging) (FIG. 6, 20 mM sodium pyrophosphate alone): weak response
